The structures appear in SMILES notation.

In one assay the test system is Jurkat cells. The assay can be described thus: Cytotoxicity of compounds, CellTiter-Glo. The following applies: Homo sapiens, Jurkat, Table 3; Cytotoxicity of Compounds on Jurkat Cells; read-out: EC50. Format: cell-based, Human. The text has this:
Cell lines used: Human T-cell leukemia cell line Jurkat (ATCC: TIB-152); HCC1954 (ATCC: CRL. 2338); Human Pancreatic cells lines: AsPC-1 (ATCC: CRL-1682), BxPC-3 (ATCC: CRL.1687), HPAF-II (ATCC: CRL.1997), MiaPaCa2 (ATCC: CRL.1420), PANC-1 (ATCC: CRL.1469), Capan-1 (ATCC: HTB-79), Capan-2 (ATCC: HTB-80) and the Human gastric carcinoma cell line NCI-N87 (ATCC: CRL. 5822); AML-193 (ATCC: CRL.9589), CCRF-CEM (ATCC: CCL-119), DU145 (ATCC: HTB-81), PC-3 (ATCC: CRL.1435), A-431 (ATCC: CRL.1555), HT-29 (ATCC: HTB-38), A-172 (ATCC: CRL.1620), NCI-H358 (ATCC: CRL.5807), A549 (ATCC: CCL-185), Colo-205 (ATCC: CCL-222), MDA-MB-231 (ATCC: HTB-26), OVCAR-3 (ATCC: HTB-161), OV-90 (ATCC: CRL.11732), OE19 (Sigma: 96071721), RT 112/84 (Sigma: 85061106).
On the day prior to adding compounds, HCC1954 AsPC-1, BxPC-3, HPAF-II, MiaPaCa2, PANC-1, Capan-1, Capan-2 and NCI-N87 cells were added to opaque-walled 96-well tissue culture-treated microtiter plates using complete growth medium at a density of 2500 cells/100 microlitre (uL) of medium. These adherant cell lines cells were incubated for one night at 37° C./5% CO2 to allow the cells to attach to the microtiter plate surface. On the day that compounds were added, Jurkat cells are added to separate 96-well microtiter plates at 2500 cells/100 uL using the same growth medium as HCC1954. Compound were first serially diluted using dimethyl sulfoxide, and then the prepared dilutions are added to complete growth medium at five-times the final concentration—compounds were then titrated 1:3, eight steps. A control with no compound (growth medium alone) was included on each microtiter plate in sextuplicate. The prepared compounds titrations were added (twenty-five uL/well) in triplicate. The cells and compound titrations were incubated at 37° C./5% CO2 for three nights. After the incubation, cell viability is measured using CellTiter-Glo® reagent by adding thirty uL of prepared CellTiter-Glo® to each assay well. The assay is incubated for at least twenty minutes in the dark prior to measuring emitted luminescence using a microplate luminometer (500 ms integration time). The collected relative luminescence units (RLU) are converted to % cytotoxicity using the Growth medium alone control mentioned above (% Cytotoxicity=1−[Well RLU/average medium alone control RLU]).
GraphPad Prism was used for generation of EC50 values using three parameter non-linear regression curve fitting.
For orientation: Cellular ATP, detected with luciferase, serves as a proxy for viable cell number.
For the compound `CN[C@H](C(=O)N[C@H](C(=O)N1CCCCC1C=C(C)C(=O)NS(=O)(=O)c1ccc(CS)cc1)C(C)(C)C)C(C)(C)c1ccccc1` (mixture of isomers) [Compound 118, (S)—N—((S)-1-(2-(3-(4-(mercaptomethyl)phenylsulfonamido)-2-methyl-3-oxoprop-1-enyl)piperidin-1-yl)-3,3-dimethyl-1-oxobutan-2-yl)-3-methyl-2-(methylamino)-3-phenylbutanamide], the EC50 (usually the concentration giving half of the maximal effect) is 13 nM.

On to `CN[C@H](C(=O)N[C@H](C(=O)N(C)[C@H](/C=C(\C)C(=O)NS(=O)(=O)c1c(C)cc(C)cc1C)C(C)C)C(C)(C)C)C(C)(C)c1ccccc1` [Compound 12, (S,E)-N-(mesitylsulfonyl)-2,5-dimethyl-4-((S)—N,3,3-trimethyl-2-((S)-3-methyl-2-(methylamino)-3-phenylbutanamido)butanamido)hex-2-enamide], for which the EC50 stood at 0.03 nM.

In the case of `CN[C@H](C(=O)N[C@H](C(=O)N(C)[C@H](/C=C(\C)C(=O)NS(=O)(=O)c1ccc(OC(F)(F)F)cc1)C(C)C)C(C)(C)C)C(C)(C)c1ccccc1` [Compound 13, (S,E)-2,5-dimethyl-N-(4-(trifluoromethoxy)phenylsulfonyl)-4-((S)—N,3,3-trimethyl-2-((S)-3-methyl-2-(methylamino)-3-phenylbutanamido)butanamido)hex-2-enamide], the EC50 is 0.038 nM.

For `CN[C@H](C(=O)N[C@H](C(=O)N(C)[C@H](/C=C(\C)C(=O)NS(=O)(=O)c1c(C(C)C)cc(C(C)C)cc1C(C)C)C(C)C)C(C)(C)C)C(C)(C)c1ccccc1` [Compound 15, (S,E)-2,5-dimethyl-N-(2,4,6-triisopropylphenylsulfonyl)-4-((S)—N,3,3-trimethyl-2-((S)-3-methyl-2-(methylamino)-3-phenylbutanamido)butanamido)hex-2-enamide], the EC50 was determined as 7.6 nM.

Regarding `CN[C@H](C(=O)N[C@H](C(=O)N(C)[C@H](/C=C(\C)C(=O)NS(=O)(=O)c1ccc(C(C)(C)C)cc1)C(C)C)C(C)(C)C)C(C)(C)c1ccccc1` [Compound 16, (S,E)-N-(4-tert-butylphenylsulfonyl)-2,5-dimethyl-4-((S)—N,3,3-trimethyl-2-((S)-3-methyl-2-(methylamino)-3-phenylbutanamido)butanamido)hex-2-enamide], the EC50 is 0.041 nM.

Turning to `CN[C@H](C(=O)N[C@H](C(=O)N(C)[C@H](/C=C(\C)C(=O)NS(=O)(=O)c1ccc(Cl)cc1)C(C)C)C(C)(C)C)C(C)(C)c1ccccc1` [Compound 17, (S,E)-N-(4-chlorophenylsulfonyl)-2,5-dimethyl-4-((S)—N,3,3-trimethyl-2-((S)-3-methyl-2-(methylamino)-3-phenylbutanamido)butanamido)hex-2-enamide], the EC50 came out at 0.325 nM.

On to `CN[C@H](C(=O)N[C@H](C(=O)N(C)[C@H](/C=C(\C)C(=O)NS(=O)(=O)c1cccc(C#N)c1)C(C)C)C(C)(C)C)C(C)(C)c1ccccc1` [Compound 18, (S,E)-N-(3-cyanophenylsulfonyl)-2,5-dimethyl-4-((S)—N,3,3-trimethyl-2-((S)-3-methyl-2-(methylamino)-3-phenylbutanamido)butanamido)hex-2-enamide], for which the EC50 was found to be 1.36 nM.

Consider `CN[C@H](C(=O)N[C@H](C(=O)N(C)[C@H](/C=C(\C)C(=O)NS(=O)(=O)c1ccccc1[N+](=O)[O-])C(C)C)C(C)(C)C)C(C)(C)c1ccccc1` [Compound 19, (S,E)-2,5-dimethyl-N-(2-nitrophenylsulfonyl)-4-((S)—N,3,3-trimethyl-2-((S)-3-methyl-2-(methylamino)-3-phenylbutanamido)butanamido)hex-2-enamide], for which the EC50 was 0.152 nM.

Regarding `CN[C@H](C(=O)N[C@H](C(=O)N(C)[C@H](/C=C(\C)C(=O)NS(=O)(=O)c1ccccc1)C(C)C)C(C)(C)C)C(C)(C)c1ccccc1` [Compound 25, (S,E)-2,5-dimethyl-N-(phenylsulfonyl)-4-((S)—N,3,3-trimethyl-2-((S)-3-methyl-2-(methylamino)-3-phenylbutanamido)butanamido)hex-2-enamide], the EC50 came out at 0.05 nM.

As for `CN[C@H](C(=O)N[C@H](C(=O)N(C)[C@H](/C=C(\C)C(=O)NS(=O)(=O)NCc1ccccc1F)C(C)C)C(C)(C)C)C(C)(C)c1ccccc1` [Compound 26, (S,E)-N—(N-(2-fluorobenzyl)sulfamoyl)-2,5-dimethyl-4-((S)—N,3,3-trimethyl-2-((S)-3-methyl-2-(methylamino)-3-phenylbutanamido)butanamido)hex-2-enamide], the EC50 came to 0.105 nM.

For the compound `CN[C@H](C(=O)N[C@H](C(=O)N(C)[C@H](/C=C(\C)C(=O)NS(=O)(=O)N1CCCCC1)C(C)C)C(C)(C)C)C(C)(C)c1ccccc1` [Compound 27, (S,E)-2,5-dimethyl-N-(piperidin-1-ylsulfonyl)-4-((S)—N,3,3-trimethyl-2-((S)-3-methyl-2-(methylamino)-3-phenylbutanamido)butanamido)hex-2-enamide], the EC50 is 0.157 nM.

For `CN[C@H](C(=O)N[C@H](C(=O)N(C)[C@H](/C=C(\C)C(=O)NS(=O)(=O)c1ccc(Br)cc1)C(C)C)C(C)(C)C)C(C)(C)c1ccccc1` [Compound 29, (S,E)-N-(4-bromophenylsulfonyl)-2,5-dimethyl-4-((S)—N,3,3-trimethyl-2-((S)-3-methyl-2-(methylamino)-3-phenylbutanamido)butanamido)hex-2-enamide], the EC50 was determined as 0.121 nM.

`CN[C@H](C(=O)N[C@H](C(=O)N(C)[C@H](/C=C(\C)C(=O)NS(=O)(=O)c1ccc2ccccc2c1)C(C)C)C(C)(C)C)C(C)(C)c1ccccc1` [Compound 30, (S,E)-2,5-dimethyl-N-(naphthalen-2-ylsulfonyl)-4-((S)—N,3,3-trimethyl-2-((S)-3-methyl-2-(methylamino)-3-phenylbutanamido)butanamido)hex-2-enamide]: the EC50 came to 0.109 nM.

Turning to `CN[C@H](C(=O)N[C@H](C(=O)N(C)[C@H](/C=C(\C)C(=O)NS(=O)(=O)NCc1ccccc1C(F)(F)F)C(C)C)C(C)(C)C)C(C)(C)c1ccccc1` [Compound 32, (S,E)-2,5-dimethyl-N—(N-(2-(trifluoromethyl)benzyl)sulfamoyl)-4-((S)—N,3,3-trimethyl-2-((S)-3-methyl-2-(methylamino)-3-phenylbutanamido)butanamido)hex-2-enamide], the EC50 was 0.265 nM.

Regarding `CN[C@H](C(=O)N[C@H](C(=O)N(C)[C@H](/C=C(\C)C(=O)NS(=O)(=O)CCOC)C(C)C)C(C)(C)C)C(C)(C)c1ccccc1` [Compound 34, (S,E)-N-(2-methoxyethylsulfonyl)-2,5-dimethyl-4-((S)—N,3,3-trimethyl-2-((S)-3-methyl-2-(methylamino)-3-phenylbutanamido)butanamido)hex-2-enamide], the EC50 amounted to 0.2 nM.

Regarding `CN[C@H](C(=O)N[C@H](C(=O)N(C)[C@H](/C=C(\C)C(=O)NS(=O)(=O)Cc1ccccc1)C(C)C)C(C)(C)C)C(C)(C)c1ccc(N=[N+]=[N-])cc1` [Compound 42, (S,E)-4-((S)-2-((S)-3-(4-azidophenyl)-3-methyl-2-(methylamino)butanamido)-N,3,3-trimethylbutanamido)-N-(benzylsulfonyl)-2,5-dimethylhex-2-enamide], the EC50 turned out to be 0.165 nM.

Still in this assay, the particulars now being: Homo sapiens, Jurkat, Table 6; Compound Cytotoxicity on Jurkat; read-out: EC50.
As for `CN[C@H](C(=O)N[C@H](C(=O)N(C)[C@H](/C=C(\C)C(=O)NS(=O)(=O)c1ccc(OC(F)(F)F)cc1)C(C)C)C(C)(C)C)C(C)(C)c1ccccc1` [Compound 13, (S,E)-2,5-dimethyl-N-(4-(trifluoromethoxy)phenylsulfonyl)-4-((S)—N,3,3-trimethyl-2-((S)-3-methyl-2-(methylamino)-3-phenylbutanamido)butanamido)hex-2-enamide], the EC50 was found to be 1.51 nM.

Take `CCCCC(C)S(=O)(=O)NC(=O)/C(C)=C/[C@H](C(C)C)N(C)C(=O)[C@@H](NC(=O)[C@@H](NC)C(C)(C)c1ccccc1)C(C)(C)C` (stereo partly drawn) [Compound 33, (4S,E)-N-(hexan-2-ylsulfonyl)-2,5-dimethyl-4-((S)—N,3,3-trimethyl-2-((S)-3-methyl-2-(methylamino)-3-phenylbutanamido)butanamido)hex-2-enamide]: the EC50 was found to be 0.636 nM.

As for `CN[C@H](C(=O)N[C@H](C(=O)N(C)[C@H](/C=C(\C)C(=O)NS(=O)(=O)CC1CCCC1)C(C)C)C(C)(C)C)C(C)(C)c1ccccc1` [Compound 35, (S,E)-N-(cyclopentylmethylsulfonyl)-2,5-dimethyl-4-((S)—N,3,3-trimethyl-2-((S)-3-methyl-2-(methylamino)-3-phenylbutanamido)butanamido)hex-2-enamide], the EC50 worked out at 0.832 nM.

(Values after US11617777B2, “Cytotoxic and anti-mitotic compounds, and methods of using the same” (ZYMEWORKS BC INC., priority 2013, dated 2023).)
